Activity calls are given as the source filed them. The rule behind the calls is not given here.
How the values were obtained:
A549 = experiment: Antiproliferative activity against human A549 cells assessed as cell growth inhibition measured after 48 hrs by CCK-8 assay; format: functional, cell-based; conditions: A549, 48 h
SK-OV-3 = experiment: Antiproliferative activity against human SK-OV-3 cells assessed as cell growth inhibition measured after 48 hrs by CCK-8 assay; format: functional, cell-based; conditions: SK-OV-3, 48 h
[1] = target: T1, DNA topoisomerase 1 (Homo sapiens) (UniProt P11387); experiment: Inhibition of recombinant human topoisomerase 1 expressed in yeast TopI null strain RS190 at 100 uM using negatively supercoiled pUC18 plasmid DNA as substrate incubated for 3 min by agarose gel electrophoresis method
T1 sequence (whole entry): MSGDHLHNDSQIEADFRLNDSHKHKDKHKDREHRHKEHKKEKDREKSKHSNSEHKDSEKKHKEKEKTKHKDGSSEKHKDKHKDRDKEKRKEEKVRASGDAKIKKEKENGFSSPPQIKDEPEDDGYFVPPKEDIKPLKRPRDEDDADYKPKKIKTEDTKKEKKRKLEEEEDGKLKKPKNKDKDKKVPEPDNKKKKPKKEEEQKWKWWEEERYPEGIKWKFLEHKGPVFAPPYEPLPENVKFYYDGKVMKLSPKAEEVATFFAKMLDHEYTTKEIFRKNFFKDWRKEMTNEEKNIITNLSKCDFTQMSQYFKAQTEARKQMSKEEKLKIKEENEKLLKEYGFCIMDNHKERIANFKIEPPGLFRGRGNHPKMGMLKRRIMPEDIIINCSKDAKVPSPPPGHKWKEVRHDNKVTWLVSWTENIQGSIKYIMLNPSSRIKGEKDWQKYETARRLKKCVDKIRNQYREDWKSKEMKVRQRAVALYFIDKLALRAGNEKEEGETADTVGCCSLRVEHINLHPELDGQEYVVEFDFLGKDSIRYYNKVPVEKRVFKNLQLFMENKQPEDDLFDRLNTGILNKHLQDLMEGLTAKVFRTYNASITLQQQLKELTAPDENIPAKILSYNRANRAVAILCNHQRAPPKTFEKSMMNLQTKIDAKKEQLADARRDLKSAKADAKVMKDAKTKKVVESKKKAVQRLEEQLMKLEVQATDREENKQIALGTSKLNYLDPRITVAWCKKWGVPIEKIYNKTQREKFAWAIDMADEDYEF

[2] = target: T1, DNA topoisomerase 1 (Homo sapiens); experiment: Inhibition of recombinant human topoisomerase 1 expressed in yeast TopI null strain RS190 at 100 uM using negatively supercoiled pUC18 plasmid DNA as substrate incubated for 1 min by agarose gel electrophoresis method
[3] = target: T1, DNA topoisomerase 1 (Homo sapiens); experiment: Inhibition of recombinant human topoisomerase 1 expressed in yeast TopI null strain RS190 at 100 uM using negatively supercoiled pUC18 plasmid DNA as substrate incubated for 15 secs by agarose gel electrophoresis method; conditions: time 15.0 sec
MRC5 = experiment: Antiproliferative activity against human MRC5 cells assessed as cell growth inhibition measured after 48 hrs by CCK-8 assay; format: cell-based; conditions: MRC5, 48 h
[4] = target: T1, DNA topoisomerase 1 (Homo sapiens); experiment: Poison activity at recombinant human topoisomerase 1 expressed in yeast TopI null strain RS190 assessed as increase in nicked plasmid DNA at 100 uM using supercoiled pUC18 plasmid DNA as substrate incubated for 15 to 180 secs by Ethidium bromide staining based agarose gel electrophoresis analysis; conditions: time 15-180 sec

Row | Compound | IC50 (A549) | IC50 (SK-OV-3) | inhibition [1] | inhibition [2] | inhibition [3] | IC50 (MRC5) | Activity [4]
1 | O=C1Oc2ccccc2[C@H]2Nc3ncc(Br)cc3[C@@H](c3ccccc3)[C@H]12 | > 50 µM | > 50 µM | 1% | 10% | 11% | > 50 µM | –
2 | O=c1oc2ccccc2c2nc3ncc(Br)cc3c(-c3ccccc3)c12 | > 50 µM | > 50 µM | 5% | 15% | 21% | > 50 µM | –
3 | COc1ccc(-c2c3c(nc4ncccc24)-c2ccccc2OC3)cc1 | > 50 µM | > 50 µM | 6% | 11% | 11% | > 50 µM | –
4 | Cc1ccc(S(=O)(=O)N2C[C@H]3[C@H](c4ccccc4)c4cccnc4N[C@@H]3c3ccccc32)cc1 | 6.3 µM | 8.21 µM | 85% | 89% | 91% | > 50 µM | Active
5 | O=c1oc2ccccc2c2nc3ncccc3c(-c3ccccc3)c12 | 1.23 µM | 1.78 µM | 51% | 75% | 75% | > 50 µM | –
6 | Cc1ccc2c(c1)-c1nc3ncccc3c(-c3ccccc3)c1CO2 | > 50 µM | > 50 µM | 1% | 1% | 26% | > 50 µM | –
7 | O=c1oc2ccc(F)cc2c2nc3ncccc3c(-c3ccccc3)c12 | > 50 µM | > 50 µM | 4% | 4% | 5% | > 50 µM | –
8 | Cc1ccc(S(=O)(=O)N2Cc3c(nc4ncccc4c3-c3ccccc3)-c3ccccc32)cc1 | 17.9 µM | 16.9 µM | 92% | 93% | 95% | > 50 µM | –
9 | c1ccc(-c2c3c(nc4ncccc24)-c2ccccc2OC3)cc1 | > 50 µM | > 50 µM | 2% | 9% | 10% | > 50 µM | –
10 | CC[C@@]1(O)C(=O)OCc2c1cc1n(c2=O)Cc2cc3ccccc3nc2-1 | – | – | – | – | – | – | Active
11 | Fc1ccc2c(c1)-c1nc3ncccc3c(-c3ccccc3)c1CO2 | 31.2 µM | 38.1 µM | 11% | 40% | 41% | > 50 µM | –
12 | c1ccc([C@@H]2c3cccnc3N[C@@H]3c4ccccc4OC[C@@H]23)cc1 | 11.7 µM | 12.2 µM | 5% | 60% | 61% | > 50 µM | –
13 | Fc1ccc2c(c1)[C@H]1Nc3ncccc3[C@@H](c3ccccc3)[C@@H]1CO2 | > 50 µM | > 50 µM | 1% | 14% | 14% | > 50 µM | –
14 | O=C1Oc2ccc(F)cc2[C@H]2Nc3ncccc3[C@@H](c3ccccc3)[C@H]12 | > 50 µM | > 50 µM | 4% | 5% | 5% | > 50 µM | –
15 | Cc1ccc(S(=O)(=O)N2Cc3c(nc4ncc(Br)cc4c3-c3ccccc3)-c3ccccc32)cc1 | 10.5 µM | 12.2 µM | 95% | 98% | 98% | > 50 µM | Active
16 | Cc1ccc2c(c1)[C@H]1Nc3ncccc3[C@@H](c3ccccc3)[C@@H]1CO2 | > 50 µM | > 50 µM | 1% | 15% | 21% | > 50 µM | –
